Assay in all cases: NCI anticancer screen, dose series, 48 h
Test [1] relates to COLO 205 colon.
Test [2] concerns CCRF-CEM leukemia.
The subject of test [3] is KM12 colon.
Test [4] deals with HOP-92 NSCLC.
Test [5] has as its system OVCAR-8 ovarian.
In test [6] the test system is HCT-116 colon.
Test [7] relates to OVCAR-5 ovarian.
Test [8] relates to MDA-MB-231 breast.
For test [9], the system named is EKVX NSCLC.
Test [10] has as its system U251 CNS.
In test [11] the test system is SF-295 CNS.
The test system of test [12] is HL-60(TB) leukemia.
For test [13], the system named is MDA-N.

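Following 48 hours of exposure in 96-well plates, responses at five concentrations were used to interpolate endpoints linearly. GI50: concentration for 50% inhibition of growth. TGI is the concentration that stops growth completely.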

Experimental findings from PubChem BioAssay (NCI) are described below.

Regarding `CC12CN(CC[N+](C)(C)C)CC1(C)C1CCC2O1` (stereo unspecified), the TGI in [1], in test [2], in test [3], in test [4], in test [5] and in test [6] was over 100 µM in each case. Further, the TGI in test [7], in test [8], in [9], in test [10] and in test [11] was over 100 µM throughout.

Take `CC(N)Cc1cccc(C(F)(F)F)c1` (stereo unspecified): the TGI in test [1], in test [12], in test [2], in test [3], in [4] and in test [5] was over 100 µM in each case. In addition, the TGI in test [6], in test [7], in [9], in test [10] and in [11] was over 100 µM in each case.

Regarding `CCOC(=O)Cc1ccc(Nc2nc3cc(C(F)(F)F)ccc3nc2C(=O)OCC)cc1`, the TGI in [1], in [12], in test [3], in test [4], in test [5] and in test [6] was over 100 µM in each case. For the same compound, the TGI in test [7], in [9], in test [10], in test [11] and in [13] was over 100 µM throughout.

As to `CC(=O)O[C@H]1C(=O)[C@@]2(C)C(C(OC(=O)c3ccccc3)[C@]3(O)CC(OC(=O)C(O)C(NC(=O)c4ccccc4)c4ccc(F)cc4)C(C)=C1C3(C)C)[C@]1(OC(C)=O)CO[C@@H]1C[C@@H]2O` (stereo partly specified), the TGI in test [1] was 0.0755 µM; in test [2], over 10 µM; in test [3] it was over 5.45 µM; in test [4] it was over 10 µM; in test [5], over 10 µM; in test [6], 0.103 µM. The TGI was over 7.89 µM in test [7]; 0.608 µM in [8]; over 10 µM in test [9]; over 10 µM in test [10]; 1.42 µM in [11].

As for `CC1(C)S[C@@H]2[C@H](NC(=O)CCC[C@@H](N)C(=O)O)C(=O)N2[C@H]1C(=O)O`, the TGI in test [1] is over 50 µM; in [12], over 50 µM; in [2], over 50 µM; in test [3] it was over 50 µM; in test [4], over 50 µM; in test [5], over 19.9 µM. For the same compound, the TGI in test [6] was over 50 µM; in test [7] it was over 28.1 µM; in test [9], over 50 µM; in test [10], over 28.4 µM; in test [11] it was over 50 µM.

Consider `CCOC(=O)/C(C#N)=C(/NS(=O)(=O)c1cc(C)c(Cl)cc1[S-])[n+]1ccc(N(C)C)cc1`, for which the TGI in test [1] was over 100 µM; in test [12], over 100 µM; in test [2] it was over 100 µM; in test [3] it was over 100 µM; in [4], 91.7 µM; in test [5] it was over 100 µM. For the same compound, the TGI in [6], in test [7], in [8], in test [9], in [10] and in test [11] was over 100 µM in each case.

As to `COC(=O)c1cccc(NC(=O)Nc2ccc3oc(=O)c4ccccc4c3c2)c1`, the GI50 is over 100 µM in [1]; 46.5 µM in test [12]; 12.1 µM in [2]; over 100 µM in test [4]; over 100 µM in test [5]; 3.89 µM in [8]. The GI50 in test [9] was over 100 µM. In addition, the TGI in test [1] was over 100 µM; in [12], over 100 µM; in test [2] it was 26.2 µM; in [4], over 100 µM; in test [5], over 100 µM; in test [8], over 100 µM. Further, the TGI in [9] was over 100 µM.

Consider `CS(=O)(=O)c1nc(N)nc2nc[nH]c12`, for which the TGI in [1], in test [12], in test [2], in [3], in test [4] and in test [5] was over 100 µM in each case. Moreover, the TGI in test [6], in test [7], in test [9], in [10] and in [11] was over 100 µM in each case.

Consider `CCOC(=O)CSc1nc(-c2ccc(OC)cc2)c(C#N)c(=O)[nH]1`, for which the TGI in test [1], in test [12], in test [2], in [3], in test [4] and in test [5] was over 100 µM throughout. Also, the TGI in test [6], in test [7], in test [8], in test [9], in test [10] and in test [11] was over 100 µM each time.

`CCCCOC(=O)CN1C(=O)c2ccccc2C1=O`: the TGI in test [1], in test [12], in test [3], in test [4], in [5] and in [6] was over 100 µM throughout. The TGI in test [7], in [9], in test [10] and in test [11] was over 100 µM in each case.

Consider `O=C(O)C(Cc1cccs1)NC(=O)C(F)(F)F` (stereo unspecified), for which the TGI in [1], in test [12], in test [2], in [3], in test [4] and in test [5] was over 100 µM throughout. For the same compound, the TGI in test [6], in [7], in test [9], in [10] and in [11] was over 100 µM throughout.

For `CCCSc1cc(Cl)c(C)cc1S(=O)(=O)n1cc[nH]c1=O`, the TGI in [1], in test [2], in test [3], in test [5], in test [6] and in [7] was over 100 µM each time. In addition, the TGI in test [8], in [9], in test [10], in test [11] and in [13] was over 100 µM in each case.
